pIC50: −log10 of the molar value.
Legend:
[1] = system: Chinese hamster ovary (CHO) cells; test: Toxicity in hypoxic and aerated CHO cells (plating efficiency/survival); format: cell-based
Description: The toxicity of the invention compounds with respect to Chinese hamster ovary (CHO) cells was compared in air and in nitrogen induced hypoxia as described by Moore, B. A., et al, Radiation Research (1976) 67:459-478. The radiosensitizing ligands, or cis or transdichlorodiamine platinum II (DDP) or the . bisubstituted platinum complexes, PtCl2 (L)2, were used as controls.
The cells were carried in MEM a medium with 10% fetal calf serum, and plating efficiencies were determined on the seventh day after plating.
In similar experiments at 100 mM/dm^3, MISO and trans-[PtCl2 (miso)2 ] show no toxicity. Survival rates for trans-DDP and monoammine were 0.2 and 0.1 respectively.
Using 100 mM levels, mono-6NQ caused plating efficiency to drop to 0 after an hour, while 6NQ had no effect after 3 hours.

[2] = system: L1210 cells, cDDP sensitive line; test: Toxicity in cisDDP-sensitive L1210 cells; format: cell-based; settings: listed as trans mono MISO, read-out: ID50 (the source's name)
From the text: (§1) Patients become resistant to cisplatin (cisDDP) and to many related drugs.

[3] = system: L1210 cells, cDDP resistant line; test: Toxicity in cisDDP-resistant L1210 cells (cross-resistance); format: cell-based; settings: L1210, cDDP resistant line; read-out: ID50 (the source's name)
From the text: as §1

[4] = system: KHT tumor model; settings: 200 mg/kg, 0.5 or 1 hour prior to X-irradiation; FIG. 6
[5] = system: hypoxic cells; settings: Teicher et al; cited from earlier work

Row | Molecule | toxicity compared with other isomer ([1]; 100 mM/dm^3, FIG. 1) | approximate order of hypoxic toxicity of platinum complexes ([1]; hypoxia) | pIC50 [2] | pIC50 [3] | radiosensitization in vivo [4] | killing of hypoxic cells / toxicity toward oxygenated cells [5]
1 | COCC(O)Cn1cc[n+]([Pt-2]([NH3+])([Cl])[Cl])c1[N+](=O)[O-] (stereo not drawn) [trans-mono-MISO, PtCl2 (NH3) (misonidazole)] | trans isomer is more toxic than cis | cis-DDP ff trans-mono-MISO f monoammine Z cis-mono-MISO f trans-DDP f mono-METRO Z mono-NI f mono-ANT | 2.19 | 1.73 | enhance the effect of the X-rays | 
2 | mono-substituted platinum complex of 1,2-diamino-4-nitrobenzene [Plato] |  |  |  |  |  | high capacity for killing of hypoxic cells and less toxicity toward oxygenated cells
